Data on six molecules can be found in patent US8993574B2, “Pyrrole antifungal agents” (F2G Ltd, priority 2008, dated 2015).

What all share (assay type): cell-based
The subject of experiment [1] is Aspergillus flavus. In words: MIC, YAG medium. The settings on record: 24 h at 35° C, MIC banded into grades; for MIC: Aspergillus flavus, 24 h, read-out: MIC grade, A. flavus. The gist of the method:
(§1)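 Spores harvested from 5-day Sabouraud agar cultures were inoculated at 1−2×10^4 cfu/mL into YAG medium (1% glucose, 1% ammonium chloride, 0.5% yeast extract) over doubling drug dilutions spanning 50-0.05 mg/L, or 0.5-0.0005 mg/L on repeat. After 24 h at 35° C, OD485 was read. MIC is the lowest concentration inhibiting growth >70% versus drug-free control, in mg/L.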

Experiment [2] concerns Aspergillus fumigatus AF210. Put plainly: MIC, YAG medium. The settings on record: 24 h at 35° C, MIC banded into grades; for MIC: Aspergillus fumigatus, read-out: MIC grade, A. fumigatus 210. In short, it runs like this: as §1
Experiment [3] deals with Aspergillus fumigatus AF293. Put plainly: MIC, YAG medium. The settings on record: 24 h at 35° C, MIC banded into grades; for MIC: Aspergillus fumigatus, read-out: MIC grade, A. fumigatus. The gist of the method: as §1
Experiment [4] concerns Aspergillus niger. Put plainly: MIC, YAG medium. Particulars: 24 h at 35° C, MIC banded into grades; for MIC: Aspergillus niger, read-out: MIC grade, A. niger. The gist of the method: as §1
Experiment [5] has as its system Aspergillus terreus AT49. In words: MIC, YAG medium. The settings on record: 24 h at 35° C, MIC banded into grades; for MIC: Aspergillus terreus, read-out: MIC grade, A. terreus 49. The gist of the method: as §1
Experiment [6] concerns Aspergillus terreus AT4. In words: MIC, YAG medium. The settings on record: 24 h at 35° C, MIC banded into grades; for MIC: Aspergillus terreus, read-out: MIC grade, A. terreus. The gist of the method: as §1
The test system of experiment [7] is Aspergillus flavus. Put plainly: MIC, RPMI medium. The settings on record: MIC banded into grades; for MIC: Aspergillus flavus, read-out: MIC grade, A. flavus. In short, it runs like this:
(§2)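 Broth microdilution in RPMI with 2% glucose, 0.135 M MOPS pH 7.0; compounds as doubling dilutions, 50-0.05 mg/L, inoculum 1−2×10^4 cfu/mL. Incubated 24-48 h at 35° C; growth by OD 485 nm. MIC is lowest concentration giving >80% growth inhibition versus drug-free control.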

The subject of experiment [8] is Aspergillus fumigatus AF210. In words: MIC, RPMI medium. Particulars: for MIC: Aspergillus fumigatus, AF210, MIC banded into grades, read-out: MIC grade, A. fumigatus 210; for MIC grade, A. fumigatus 210: MIC banded into grades. The gist of the method: as §2
The test system of experiment [9] is Aspergillus fumigatus AF293. Put plainly: MIC, RPMI medium. The settings on record: for MIC: Aspergillus fumigatus, AF293, MIC banded into grades, read-out: MIC grade, A. fumigatus; for MIC grade, A. fumigatus: MIC banded into grades. The gist of the method: as §2
The test system of experiment [10] is Aspergillus niger. In words: MIC, RPMI medium. The settings on record: MIC banded into grades; for MIC: Aspergillus niger, read-out: MIC grade, A. niger. The gist of the method:
as §2

The test system of experiment [11] is Aspergillus terreus AT49. Put plainly: MIC, RPMI medium. The settings on record: for MIC: Aspergillus terreus, AT49, MIC banded into grades, read-out: MIC grade, A. terreus 49; for MIC grade, A. terreus 49: MIC banded into grades. The gist of the method:
as §2

For experiment [12], the system named is Aspergillus terreus AT4. In words: MIC, RPMI medium. Particulars: for MIC: Aspergillus terreus, AT4, MIC banded into grades, read-out: MIC grade, A. terreus; for MIC grade, A. terreus: MIC banded into grades. In short, it runs like this:
as §2

For a further experiment, the system named is Candida albicans. Put plainly: MIC, RPMI medium. The settings on record: 24-48 h at 35° C., >80% growth inhibition, banded into grades; for MIC: Candida albicans. In short, it runs like this: as §2
Another experiment deals with Candida glabrata. Put plainly: MIC, RPMI medium. Particulars: 24-48 h at 35° C., >80% growth inhibition, banded into grades; for MIC: Nakaseomyces glabratus. In short, it runs like this: as §2
The next experiment deals with Candida krusei. In words: MIC, RPMI medium. Particulars: 24-48 h at 35° C., >80% growth inhibition, banded into grades; for MIC: Pichia kudriavzevii. In short, it runs like this:
as §2

The subject of a further experiment is Candida parapsilosis. Put plainly: MIC, RPMI medium. Particulars: 24-48 h at 35° C., >80% growth inhibition, banded into grades; for MIC: Lodderomyces parapsilosis. The gist of the method:
as §2

A further experiment has as its system Candida tropicalis. Put plainly: MIC, RPMI medium. The settings on record: 24-48 h at 35° C., >80% growth inhibition, banded into grades; for MIC: Candida tropicalis. The gist of the method:
as §2

Converted amounts (≈) assume the structure as drawn. A value given as a limit tells only on which side of the number the result lay.

For orientation: MIC means the lowest concentration found to suppress growth.

Take `COCCn1c(C)cc(-c2ccccc2)c1C(=O)C(=O)Nc1ccc(N2CCN(CC(C)(C)C)CC2)cc1F` [Example 113, N-{4-[4-(2,2-Dimethyl-propyl)-piperazin-1-yl]-2-fluoro-phenyl}-2-[1-(2-methoxy-ethyl)-5-methyl-3-phenyl-1H-pyrrol-2-yl]-2-oxo-acetamide]: the MIC (in the experiment on Aspergillus flavus [1]; in [2]; in [3]; in the experiment with Aspergillus niger [4]; with Aspergillus terreus AT49 [5]; in the experiment on Aspergillus terreus AT4 [6]) was below 1 µg/mL in each case. Besides, the MIC in the experiment on Aspergillus flavus [7] is 1 to 10 µg/mL (≈ 1.87 to 18.7 µM); in [8] it was below 1 µg/mL; in experiment [9] it was 1 to 10 µg/mL (≈ 1.87 to 18.7 µM); in the experiment with Aspergillus niger [10], below 1 µg/mL; with Aspergillus terreus AT49 [11], 1 to 10 µg/mL (≈ 1.87 to 18.7 µM); in the experiment on Aspergillus terreus AT4 [12] it was below 1 µg/mL. The MIC against Candida albicans, with Candida glabrata, in the experiment on Candida krusei, with Candida parapsilosis and in the experiment on Candida tropicalis was below 1 µg/mL throughout.
As for `Cc1cc(C)nc(N2CCN(c3ccc(NC(=O)C(=O)c4c(-c5ccccc5)cc(C)n4CCN(C)C)cc3)CC2)c1` [Example 86, 2-[1-(2-Dimethylamino-ethyl)-5-methyl-3-phenyl-1H-pyrrol-2-yl]-N-{4-[4-(4,6-dimethyl-pyridin-2-yl)-piperazin-1-yl]-phenyl}-2-oxo-acetamide], the MIC in the experiment with Aspergillus flavus [1] is 1 to 10 µg/mL (≈ 1.77 to 17.7 µM); in [2], above 10 µg/mL; in [3] it was above 10 µg/mL; with Aspergillus niger [4] it was above 10 µg/mL; in the experiment on Aspergillus terreus AT49 [5] it was above 10 µg/mL; with Aspergillus terreus AT4 [6] it was above 10 µg/mL. Moreover, the MIC (in the experiment with Aspergillus flavus [7]; in experiment [8]; in [9]; in the experiment on Aspergillus niger [10]; in the experiment on Aspergillus terreus AT49 [11]; with Aspergillus terreus AT4 [12]) was above 10 µg/mL in each case. The MIC in the experiment with Candida albicans, against Candida glabrata, in the experiment with Candida krusei, with Candida parapsilosis and against Candida tropicalis was below 1 µg/mL in each case.
Consider `COCCn1ccc(CC(C)C)c1C(=O)C(=O)Nc1ccc(N2CCN(c3cc(C)cc(C)n3)CC2)cc1` [Example 68, N-{4-[4-(4,6-Dimethyl-pyridin-2-yl)-piperazin-1-yl]-phenyl}-2-[3-isobutyl-1-(2-methoxy-ethyl)-1H-pyrrol-2-yl]-2-oxo-acetamide], for which the MIC with Aspergillus flavus [1] was above 10 µg/mL; in [2], above 10 µg/mL; in experiment [3], 1 to 10 µg/mL (≈ 1.93 to 19.3 µM); with Aspergillus niger [4] it was above 10 µg/mL; in the experiment on Aspergillus terreus AT49 [5], 1 to 10 µg/mL (≈ 1.93 to 19.3 µM); with Aspergillus terreus AT4 [6], 1 to 10 µg/mL (≈ 1.93 to 19.3 µM). The MIC (in the experiment on Aspergillus flavus [7]; in experiment [8]; in experiment [9]; in the experiment on Aspergillus niger [10]; with Aspergillus terreus AT49 [11]; in the experiment on Aspergillus terreus AT4 [12]) was above 10 µg/mL throughout. The MIC in the experiment with Candida albicans was below 1 µg/mL; in the experiment on Candida glabrata, below 1 µg/mL; with Candida krusei, 1 to 10 µg/mL (≈ 1.93 to 19.3 µM); with Candida parapsilosis it was below 1 µg/mL; with Candida tropicalis, below 1 µg/mL.
As to `COCCn1ccc(-c2ccccc2)c1C(=O)C(=O)Nc1ccccc1` [Example 81, 2-[1-(2-Methoxy-ethyl)-3-phenyl-1H-pyrrol-2-yl]-2-oxo-N-phenyl-acetamide], the MIC (with Aspergillus flavus [1]; in [2]; in experiment [3]; in the experiment on Aspergillus niger [4]; in the experiment with Aspergillus terreus AT49 [5]; in the experiment on Aspergillus terreus AT4 [6]) was above 10 µg/mL each time. Further, the MIC (in the experiment with Aspergillus flavus [7]; in experiment [8]; in experiment [9]; in the experiment with Aspergillus niger [10]; in the experiment on Aspergillus terreus AT49 [11]; in the experiment on Aspergillus terreus AT4 [12]) was above 10 µg/mL each time. The MIC against Candida albicans, against Candida glabrata, in the experiment on Candida krusei, against Candida parapsilosis and in the experiment on Candida tropicalis was below 1 µg/mL throughout.
As for `COC(=O)Cn1ccc(C(C)C)c1C(=O)C(=O)Nc1ccc(N2CCN(c3cc(C)cc(C)n3)CC2)cc1` [Example 88], the “MIC grade, A. flavus” value in the experiment with Aspergillus flavus [1] and against Aspergillus flavus [7] was 1 (a grade of 1 represents an MIC of greater than 10 mg/L) in each case. In addition, the “MIC grade, A. fumigatus 210” value in experiment [2] and in experiment [8] was 3 (A grade of 3 represents an MIC of less than 1 mg/L) each time. Further, the “MIC grade, A. fumigatus” value in [3] and in experiment [9] was 3 (A grade of 3 represents an MIC of less than 1 mg/L) throughout. The “MIC grade, A. niger” value with Aspergillus niger [4] and with Aspergillus niger [10] was 2 (A grade of 2 represents an MIC of from 1 to 10 mg/L) throughout. For the same molecule, the “MIC grade, A. terreus 49” value against Aspergillus terreus AT49 [5] and against Aspergillus terreus AT49 [11] was 1 (a grade of 1 represents an MIC of greater than 10 mg/L) each time. Further, the “MIC grade, A. terreus” value in the experiment with Aspergillus terreus AT4 [6] is on record as 2 (A grade of 2 represents an MIC of from 1 to 10 mg/L); in the experiment on Aspergillus terreus AT4 [12], 1 (a grade of 1 represents an MIC of greater than 10 mg/L). The “Candida MIC, C. albicans” value in the experiment with Candida albicans is 2 (A grade of 2 represents an MIC of from 1 to 10 mg/L). The “Candida MIC, C. glabrata” value with Candida glabrata is given as 3 (A grade of 3 represents an MIC of less than 1 mg/L). Moreover, the “Candida MIC, C. krusei” value with Candida krusei is listed as 3 (A grade of 3 represents an MIC of less than 1 mg/L). Further, the “Candida MIC, C. parapsilosis” value in the experiment on Candida parapsilosis is 3 (A grade of 3 represents an MIC of less than 1 mg/L). Also, in the experiment with Candida tropicalis, the “Candida MIC, C. tropicalis” value was 3 (A grade of 3 represents an MIC of less than 1 mg/L).
As to `COC(=O)Cn1c(C)cc(-c2ccccc2)c1C(=O)C(=O)Nc1ccc(N2CCN(c3cc(C)cc(C)n3)CC2)cc1` [Example 52, (2-{4-[4-(4,6-Dimethyl-pyridin-2-yl)-piperazin-1-yl]-phenylaminooxalyl}-5-methyl-3-phenyl-pyrrol-1-yl)-acetic acid methyl ester], the results for the “MIC grade, A. flavus” value with Aspergillus flavus [1] and against Aspergillus flavus [7] were 3 (A grade of 3 represents an MIC of less than 1 mg/L) and 2 (A grade of 2 represents an MIC of from 1 to 10 mg/L), respectively. The “MIC grade, A. fumigatus 210” value in experiment [2] and in experiment [8] was 3 (A grade of 3 represents an MIC of less than 1 mg/L) in each case. The “MIC grade, A. fumigatus” value in experiment [3] and in [9] was 3 (A grade of 3 represents an MIC of less than 1 mg/L) each time. For the same molecule, the “MIC grade, A. niger” value in the experiment with Aspergillus niger [4] and against Aspergillus niger [10] was 3 (A grade of 3 represents an MIC of less than 1 mg/L) each time. The “MIC grade, A. terreus 49” value in the experiment on Aspergillus terreus AT49 [5] and against Aspergillus terreus AT49 [11] was 3 (A grade of 3 represents an MIC of less than 1 mg/L) throughout. For the same molecule, the “MIC grade, A. terreus” value with Aspergillus terreus AT4 [6] and against Aspergillus terreus AT4 [12] was 3 (A grade of 3 represents an MIC of less than 1 mg/L) each time. The “Candida MIC, C. albicans” value in the experiment with Candida albicans is on record as 2 (A grade of 2 represents an MIC of from 1 to 10 mg/L). Also, the “Candida MIC, C. glabrata” value with Candida glabrata is recorded as 3 (A grade of 3 represents an MIC of less than 1 mg/L). Moreover, in the experiment with Candida krusei, the “Candida MIC, C. krusei” value is given as 3 (A grade of 3 represents an MIC of less than 1 mg/L). Further, the “Candida MIC, C. parapsilosis” value with Candida parapsilosis is given as 2 (A grade of 2 represents an MIC of from 1 to 10 mg/L). Besides, in the experiment on Candida tropicalis, the “Candida MIC, C. tropicalis” value is on record as 2 (A grade of 2 represents an MIC of from 1 to 10 mg/L).
